Experimental data taken from patent US20090036449A1, “Indazolesquaric Acid Derivatives as Chk1, Chk2 and Sgk Inhibitors” (priority 2005, published 2009).
pIC50: −log10 of the molar value.

Biological target: T1, SGK1 protein kinase (Homo sapiens, UniProt O00141)
T1 sequence (O00141 1-431): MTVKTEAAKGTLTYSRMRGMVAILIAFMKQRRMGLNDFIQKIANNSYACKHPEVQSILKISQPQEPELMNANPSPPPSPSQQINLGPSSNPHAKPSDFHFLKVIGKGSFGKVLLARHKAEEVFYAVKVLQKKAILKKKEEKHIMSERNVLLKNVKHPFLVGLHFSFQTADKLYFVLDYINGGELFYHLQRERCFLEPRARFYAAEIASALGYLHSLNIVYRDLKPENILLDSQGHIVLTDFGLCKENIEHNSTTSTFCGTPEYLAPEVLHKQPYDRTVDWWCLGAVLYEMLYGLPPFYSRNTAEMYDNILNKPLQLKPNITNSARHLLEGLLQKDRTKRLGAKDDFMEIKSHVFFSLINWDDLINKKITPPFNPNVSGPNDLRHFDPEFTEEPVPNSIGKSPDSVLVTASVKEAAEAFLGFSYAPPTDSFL
Experiment: SGK inhibition (filter binding method, analogously to CHK1, CHK2)
Type: biochemical
Procedure: (§1) 5-20 mU of CHK1 kinase (diluted in 20 mM MOPS pH7.5, 1 mM EDTA, 0.1% β-mercaptoethanol, 0.01% Brij-35, 5% glycerol, 1 mg/ml of BSA) are incubated for 30 min at room temperature in the presence of 30-200 μM CHKtide in 25.5 μl in 1-fold reaction buffer (8 mM MOPS pH7, 0.2 mM EDTA, 10 mM magnesium acetate, 0.02 mM ^33P-ATP [500-1000 cpm/pmol]). The reaction is stopped using 5 μl of 0.5 M ortho-phosphoric acid and filtered through P81 filter plates. After the filter plates have been washed a number of times, the bound radioactivity is determined in a scintillation counter.
as §1, with “CHK2” for “CHK1”, “CHKtide ([…])” for “CHKtide”
The inhibition of SGK1 protein kinase can be determined in the filter binding method (analogously to CHK1, CHK2).

| pIC50 | Structure (SMILES) |
| --- | --- |
| 8.00 | O=C(Nc1n[nH]c2ccc(Nc3c(NCc4cccc(O)c4)c(=O)c3=O)cc12)c1ccccc1 [Compound 40, 3-(3-benzoylamino-1H-indazol-5-ylamino)-4-(3-hydroxybenzylamino)cyclobut-3-ene-1,2-dione] |
| 7.21 | COc1cccc(CNc2c(Nc3ccc4[nH]nc(NC(=O)c5ccccc5)c4c3)c(=O)c2=O)c1 [Compound 41, 3-(3-benzoylamino-1H-indazol-5-ylamino)-4-(3-methoxybenzylamino)cyclobut-3-ene-1,2-dione] |
| 8.00 | COc1cccc([C@@H](C)Nc2c(Nc3ccc4[nH]nc(NC(=O)c5ccccc5)c4c3)c(=O)c2=O)c1 [Compound 42, 3-(3-benzoylamino-1H-indazol-5-ylamino)-4-[(R)-1-(3-methoxyphenyl)ethylamino]cyclobut-3-ene-1,2-dione] |
